From US20220211699A1 (priority 2019, published 2022)

Experiments:
[1] = system: patients with diabetic neuropathy; assay: Clinical study, SF-36 Mental Component Summary (MCS): positive risk of depression or anxiety; assay type: in vivo; conditions: Group 3
Protocol: (§1) The clinical study was carried out on a population of 142 patients with diabetic neuropathy of both sexes and aged between 18 and 75 years. Patients were divided into three groups and submitted to a randomized, double blind, placebo-controlled, parallel-group clinical trial, with double-dummy modality for patients in group 2.
(§2) Group 1 was treated with 20 mg trazodone (10 drops of 6% trazodone hydrochloride solution) three times a day for 8 weeks, for a total of 60 mg a day.
(§3) Group 2 was treated with 10 mg trazodone (5 drops of 6% trazodone hydrochloride solution) three times a day for 8 weeks, for a total of 30 mg a day.
(§4) Group 3 was treated with placebo, 10 drops of an oral solution three times a day for 8 weeks.
(§5) During the ninth week, concluding the clinical trial, group 1 was treated with 10 mg trazodone three times daily for a total of 30 mg per day, while both group 2 and group 3 were treated with placebo.
Gabapentin was administered in an incremental dosage for all patients treated according to the dosage regimen shown in Table 1 below using capsules containing 100 mg, 300 mg and 400 mg of commercially available gabapentin (Neurontin®, Pfizer). […]
The results are expressed as a percentage of patients with a positive risk of depression or anxiety compared to the normal general population in which a normal value of […] is estimated.

[2] = system: patients with diabetic neuropathy; assay: Clinical study, Brief Pain Inventory-Short Form (BPI-SF) pain self-assessment; assay type: in vivo; conditions: Group 3
Protocol: as §1, §2, §3, §4, §5
The 6% trazodone hydrochloride solution contained trazodone hydrochloride (6%), macrogol (35%), propylene glycol (30%), citric acid (0.5%), sucrose (0.15%), sodium hydroxide (0.125%), propyl gallate (0.10%), disodium edetate (0.05%), and purified water as needed at 100 mL. The placebo solution is identical to trazodone solution, but without active ingredient.
Gabapentin was administered in an incremental dosage for all patients treated according to the dosage regimen shown in Table 1 below using capsules containing 100 mg, 300 mg and 400 mg of commercially available gabapentin (Neurontin®, Pfizer). The capsules contain lactose monohydrate, corn starch and talc as excipients, and E171 and […] color combinations.
At the beginning of treatment and at the end of each treatment week, the patients under treatment completed the Brief Pain Inventory-Short Form (BPI-SF), which includes a set of questions relating to pain self-assessment (Zelman D C, et al., “Validation of a modified version of the pain inventory brief for painful diabetic peripheral neuropathy”, J. Pain Symptom Manage. 2005 April; 29(4):401-10).
In particular, patients assessed the average pain intensity in the week prior to the assessment (issue 5) and at the time of the assessment (issue 6) on a scale from 0 to 10 where 0 represents “no pain” and 10 represents “more pain than you can imagine”.
At each visit the evaluations were collected and processed in order to determine the deviation from the average value obtained for each group at the beginning of the treatment. The results were collected in the following Tables 3 and 4, from which the graphs shown in FIGS. 1 and 2 were obtained, respectively.

[3] = system: diabetic patients suffering from peripheral diabetic neuropathy; conditions: 100 mg/day in a divided dose; 6 diabetic patients; cited from earlier work
[4] = system: adult diabetic patients with painful distal symmetrical polyneuropathy; conditions: oral 50 or 100 mg/day; after 2 weeks of therapy; cited from earlier work
[5] = Visit 1, placebo drops + gabapentin 300 mg/day
[6] = Visit 2, placebo drops + gabapentin 600 mg/day
[7] = Visit 3, placebo drops + gabapentin 900 mg/day
[8] = Visit 4, placebo drops + gabapentin 1200 mg/day
[9] = Visit 5, placebo drops + gabapentin 1800 mg/day
[10] = Visit 6, placebo drops + gabapentin 2400 mg/day
[11] = Visit 7, placebo drops + gabapentin 2400 mg/day
[12] = Visit 8, placebo drops + gabapentin 2400 mg/day
[13] = Visit 9, placebo drops + gabapentin
[14] = placebo drops + incremental gabapentin

With NCC1(CC(=O)O)CCCCC1 [gabapentin, 2-[1-(aminomethyl)cyclohexyl] acetic acid] as the compound, how does the “percentage of patients with a positive risk of depression or anxiety” value ([1]; Visit 0 (beginning of treatment, baseline)) read?
The value was 38%.

What about the “percentage of patients with a positive risk of depression or anxiety” value ([1]; Visit 8 (end of treatment), placebo drops + incremental gabapentin) of the same compound?
The value was 29%.

What about the “Average pain assessment deviation from beginning of treatment (Visit 0), Question 5” value (from here on “Average pain assessment deviation … Question 5”) [2, 5] of the same compound?
Its value is −1.0.

And the “Average pain assessment deviation from beginning of treatment (Visit 0), Question 6” value (“Average pain assessment deviation … Question 6” for short) [2, 5]?
The value was −0.9.

What about the “Average pain assessment deviation … Question 5” value [2, 6] of the same compound?
The value was −1.7.

And the “Average pain assessment deviation … Question 6” value [2, 6]?
Its value is −1.4.

And the “Average pain assessment deviation … Question 5” value [2, 7]?
The value was −2.1.

What about the “Average pain assessment deviation … Question 6” value [2, 7] of the same compound?
The value was −1.7.

What about the “Average pain assessment deviation … Question 5” value [2, 8] of the same compound?
The value was −1.9.

What about the “Average pain assessment deviation … Question 6” value [2, 8] of the same compound?
The value was −1.6.

What about the “Average pain assessment deviation … Question 5” value [2, 9] of the same compound?
The value was −2.1.

What about the “Average pain assessment deviation … Question 6” value [2, 9] of the same compound?
The value was −1.8.

And the “Average pain assessment deviation … Question 5” value [2, 10]?
Its value is −2.4.

And the “Average pain assessment deviation … Question 6” value [2, 10]?
Its value is −2.0.

And the “Average pain assessment deviation … Question 5” value [2, 11]?
Its value is −2.4.

And the “Average pain assessment deviation … Question 6” value [2, 11]?
Its value is −1.9.

And the “Average pain assessment deviation … Question 5” value [2, 12]?
The value was −2.5.

And the “Average pain assessment deviation … Question 6” value [2, 12]?
Its value is −2.0.

And the “Average pain assessment deviation … Question 5” value [2, 13]?
The value was −2.5.

And the “Average pain assessment deviation … Question 6” value [2, 13]?
The value was −2.0.

And the “Patients with 50% reduction (percentage of patients with a reduction of at least 50% compared to the initial value), question 5” value [2, 14]?
The value was 45.8%.

And the “Sum deviations (sum of all the deviations obtained at each visit), question 5” value [2, 14]?
Its value is −117.6.

Which results are given for O=c1n(CCCN2CCN(c3cccc(Cl)c3)CC2)nc2ccccn12 [trazodone, 2-(3-[4-(3-chlorophenyl)piperazin-1-yl]propyl)-[1,2,4]triazole[4,3-a]pyridin-3(2H)-one]?
effect in pain relief and numbness [3]: good effect; patients with complete relief [4]: 22.6%; patients with symptomatic relief [4]: 61.3%
